Assay results from patent publication US20250270445A1, “COMPOUNDS AND USES THEREOF IN FIELD OF OPTOELECTRONICS” (Zhejiang Brilliant Optoelectronic Technology Co.,Ltd., priority 2022, published 2025).

Legend:
Type in all cases: physicochemical
[1] = Solubility of compounds in toluene
Experimental: The solubility of the compounds in the toluene were determined as follows: • 1. 1000 mg of toluene solution was placed in the transparent glass sample bottle. • 2. A certain mass of the compound was added into the toluene, and oscillated until completely dissolved. • 3. After the compound was completely dissolved, a certain mass of the compound was further added into the toluene, and oscillated. • 4. The above steps were repeated until the compound wasn't dissolved any more. • 5. The total mass of the compound added was recorded and the solubility was obtained by calculation.

[2] = Absorption spectrum, emission spectrum and extinction coefficient in toluene solution; details: for Molar extinction coefficient of the toluene solution: maximum absorption peak
Experimental: The extinction coefficients of the compounds and their absorption and emission spectrums in the solution were determined as follows: • 1. The compound with a certain amount of substance concentration in the toluene was prepared in a volumetric flask. • 2. The absorption spectrum of the solution was measured by using an ultraviolet-visible spectrophotometer (Puxi T9s) to obtain the absorption peak wavelength. • 3. The absorbance of the maximum absorption peak divided by the amount of substance concentration is the molar extinction coefficient of the compound. • 4. The emission spectrum of the solution was measured by using a fluorescent spectroscope (Hitachi, F-4700 FL Spectrophotometer) to obtain the emission peak wavelength.

[3] = Absorption and emission spectrum in spin-coated film; details: for Absorption peak of the film / Emission peak of the film: spin-coated film
Experimental: The absorption and emission spectrums of the compounds in the film were determined as follows: • 1. The compound with a certain concentration in the toluene was prepared. • 2. The prepared toluene solution was dropped onto a clean glass substrate. • 3. Spin-coating, and then heating at the 80° C. for 1 min. • 4. The absorption spectrum of the film was measured by using an ultraviolet-visible spectrophotometer (Puxi T9s) to obtain the absorption peak wavelength. • 5. The emission spectrum of the film was measured by using a fluorescent spectroscope (Hitachi, F-4700 FL Spectrophotometer) to obtain the emission peak wavelength.

[4] = UV stability of compounds in toluene (absorbance decay to 80%); details: 1×10^−5 mol/L in toluene, UV LEDs 365 nm & 255 nm, time to 80% absorbance, normalized to comparative compound 2 as 100%
Experimental: The compound was dissolved in the toluene with a concentration of 1×10^−5 mol/L. 3 mL solution was added to the cuvette with a lid and the lid was screwed on tightly, then the cuvette was placed in the ultraviolet-visible spectrophotometer to test the absorption spectrum, the absorbance of the maximum absorption peak was recorded as the initial value. The cuvette was placed at a distance of 12 cm from the UV LEDs (365 nm & 255 nm), irradiated for a period and tested its absorption spectrum, then continued to be irradiated after the test, and repeated until the absorbance decayed to 80% of its initial value, the time was recorded as t80.

| Compound | Solubilities(/100 g, toluene) [1] | Absorption peak of the toluene solution [2] | Emission peak of the toluene solution [2] | Molar extinction coefficient of the toluene solution [2] | Absorption peak of the film [3] | Emission peak of the film [3] | Times t80 [4] | red shift of film spectrum versus solution spectrum ([3]; film versus toluene solution) |
| --- | --- | --- | --- | --- | --- | --- | --- | --- |
| CC(C)c1cccc(C(C)C)c1N(c1ccc(C(C)(C)C)cc1)c1cc(N(c2ccc(C(C)(C)C)cc2)c2c(C(C)C)cccc2C(C)C)c2ccc3c(N(c4ccc(C(C)(C)C)cc4)c4c(C(C)C)cccc4C(C)C)cc(N(c4ccc(C(C)(C)C)cc4)c4c(C(C)C)cccc4C(C)C)c4ccc1c2c43 [compound 6] | >20 g/100 g toluene | – | – | – | – | – | – | – |
| CCCCCCCCc1ccc(-c2cc(OC)ccc2N(c2cc(F)c(F)c(F)c2)c2cc(N(c3cc(F)c(F)c(F)c3)c3ccc(OC)cc3-c3ccc(CCCCCCCC)cc3)c3ccc4c(N(c5cc(F)c(F)c(F)c5)c5ccc(OC)cc5-c5ccc(CCCCCCCC)cc5)cc(N(c5cc(F)c(F)c(F)c5)c5ccc(OC)cc5-c5ccc(CCCCCCCC)cc5)c5ccc2c3c54)cc1 [compound 16] | >10 g/100 g toluene | 475 nm | 496 nm | 7.0 × 10^4 L · mo 1^−1 | 476 nm | 496 nm | 383% | – |
| CC(C)c1ccc(-c2cc(-c3cc(C(C)(C)C)cc(C(C)(C)C)c3)ccc2N(c2cc(F)c(F)c(F)c2)c2cc(N(c3cc(F)c(F)c(F)c3)c3ccc(-c4cc(C(C)(C)C)cc(C(C)(C)C)c4)cc3-c3ccc(C(C)C)cc3)c3ccc4c(N(c5cc(F)c(F)c(F)c5)c5ccc(-c6cc(C(C)(C)C)cc(C(C)(C)C)c6)cc5-c5ccc(C(C)C)cc5)cc(N(c5cc(F)c(F)c(F)c5)c5ccc(-c6cc(C(C)(C)C)cc(C(C)(C)C)c6)cc5-c5ccc(C(C)C)cc5)c5ccc2c3c54)cc1 [compound 14] | >5 g/100 g toluene | 475 nm | 494 nm | 5.1 × 10^4 L · mo 1^−1 | 471 nm | 493 nm | – | – |
| CC(C)c1ccc(N(c2cc(F)c(F)c(F)c2)c2cc(N(c3cc(F)c(F)c(F)c3)c3ccc(C(C)C)cc3/C=C/c3ccc(C(C)(C)C)cc3)c3ccc4c(N(c5cc(F)c(F)c(F)c5)c5ccc(C(C)C)cc5/C=C/c5ccc(C(C)(C)C)cc5)cc(N(c5cc(F)c(F)c(F)c5)c5ccc(C(C)C)cc5/C=C/c5ccc(C(C)(C)C)cc5)c5ccc2c3c54)c(/C=C/c2ccc(C(C)(C)C)cc2)c1 [compound 19] | >5 g/100 g toluene | – | – | – | – | – | – | – |
| CC(C)(C)c1ccc2c(c1)c1cc(C(C)(C)C)cc3c1n2-c1cccc2c1B3c1cc3c4ccccc4c4ccccc4c3c3c4c5c6ccccc6c6ccccc6c5ccc4n-2c13 [E2] | >0.7 g/100 g toluene | 507 nm | 523 nm | 4.8 × 10^4 L · mo 1^−1 | – | – | – | – |
| CC1CCC(C(C)C)C(Oc2ccc(-c3cc(C(C)C)ccc3N(c3cc(F)c(F)c(F)c3)c3cc(N(c4cc(F)c(F)c(F)c4)c4ccc(C(C)C)cc4-c4ccc(OC5CC(C)CCC5C(C)C)cc4)c4ccc5c(N(c6cc(F)c(F)c(F)c6)c6ccc(C(C)C)cc6-c6ccc(OC7CC(C)CCC7C(C)C)cc6)cc(N(c6cc(F)c(F)c(F)c6)c6ccc(C(C)C)cc6-c6ccc(OC7CC(C)CCC7C(C)C)cc6)c6ccc3c4c65)cc2)C1 (stereo not drawn) [compound 15] | >10 g/100 g toluene | 476 nm | 493 nm | 6.8 × 10^4 L · mo 1^−1 | 473 nm | 491 nm | 440% | – |
| CCCCCCC1(CCCCCC)c2ccccc2-c2ccc(-c3ccccc3-c3ccc4c5cccc6c(-c7ccccc7-c7ccc8c(c7)C(CCCCCC)(CCCCCC)c7ccccc7-8)ccc(c7cccc3c74)c65)cc21 [comparative compound 1, reference compound] | – | 461 nm | 485 nm | 4.3 × 10^4 L · mo 1^−1 | 464 nm | 543 nm | – | large red shift |
| CCc1cccc(CC)c1N(c1ccc(C(C)(C)C)cc1)c1cc(N(c2ccc(C(C)(C)C)cc2)c2c(CC)cccc2CC)c2ccc3c(N(c4ccc(C(C)(C)C)cc4)c4c(CC)cccc4CC)cc(N(c4ccc(C(C)(C)C)cc4)c4c(CC)cccc4CC)c4ccc1c2c43 [compound 9] | 25.9 g/100 g toluene | 482 nm | 500 nm | 5.3 × 10^4 L · mo 1^−1 | 482 nm | 499 nm | 279% | – |
| Cc1cc2ccccc2cc1N(c1ccc(C(C)(C)C)cc1)c1cc(N(c2ccc(C(C)(C)C)cc2)c2cc3ccccc3cc2C)c2ccc3c(N(c4ccc(C(C)(C)C)cc4)c4cc5ccccc5cc4C)cc(N(c4ccc(C(C)(C)C)cc4)c4cc5ccccc5cc4C)c4ccc1c2c43 [compound 10] | >2.5 g/100 g toluene | – | – | – | – | – | – | – |
| CCCCCCCCc1ccc(-c2cc(N(c3ccc(C(C)(C)C)cc3)c3ccc(C(C)(C)C)cc3)ccc2N(c2cc(F)c(F)c(F)c2)c2cc(N(c3cc(F)c(F)c(F)c3)c3ccc(N(c4ccc(C(C)(C)C)cc4)c4ccc(C(C)(C)C)cc4)cc3-c3ccc(CCCCCCCC)cc3)c3ccc4c(N(c5cc(F)c(F)c(F)c5)c5ccc(N(c6ccc(C(C)(C)C)cc6)c6ccc(C(C)(C)C)cc6)cc5-c5ccc(CCCCCCCC)cc5)cc(N(c5cc(F)c(F)c(F)c5)c5ccc(N(c6ccc(C(C)(C)C)cc6)c6ccc(C(C)(C)C)cc6)cc5-c5ccc(CCCCCCCC)cc5)c5ccc2c3c54)cc1 [compound 18] | >10 g/100 g toluene | 492 nm | 520 nm | 5.1 × 10^4 L · mo 1^−1 | 487 nm | 518 nm | – | – |
| CC(C)c1cccc(C(C)C)c1N(c1cc(C(C)(C)C)cc(C(C)(C)C)c1)c1cc(N(c2cc(C(C)(C)C)cc(C(C)(C)C)c2)c2c(C(C)C)cccc2C(C)C)c2ccc3c(N(c4cc(C(C)(C)C)cc(C(C)(C)C)c4)c4c(C(C)C)cccc4C(C)C)cc(N(c4cc(C(C)(C)C)cc(C(C)(C)C)c4)c4c(C(C)C)cccc4C(C)C)c4ccc1c2c43 [compound 7] | >20 g/100 g toluene | – | – | – | – | – | – | – |
| Cc1cc2ccccc2c(C)c1N(c1ccc(C(C)(C)C)cc1)c1cc(N(c2ccc(C(C)(C)C)cc2)c2c(C)cc3ccccc3c2C)c2ccc3c(N(c4ccc(C(C)(C)C)cc4)c4c(C)cc5ccccc5c4C)cc(N(c4ccc(C(C)(C)C)cc4)c4c(C)cc5ccccc5c4C)c4ccc1c2c43 [compound 11] | >2 g/100 g toluene | – | – | – | – | – | – | – |
| CC(C)(C)c1ccc2c(c1)c1cc(C(C)(C)C)cc3c1n2-c1cc(-c2c(-c4ccccc4)cc(-c4ccccc4)cc2-c2ccccc2)cc2c1B3c1cc3c4ccccc4c4ccccc4c3c3c4c5c6ccccc6c6ccccc6c5ccc4n-2c13 [E3] | >0.7 g/100 g toluene | 512 nm | 530 nm | 6.6 × 10^4 L · mo 1^−1 | – | – | – | – |
| c1ccc(N(c2ccc(-c3ccc(N(c4ccccc4)c4ccc5c(c4)c4ccccc4n5-c4ccccc4)cc3)cc2)c2ccc3c(c2)c2ccccc2n3-c2ccccc2)cc1 [comparative compound 2, reference compound] | – | – | – | – | – | – | 100% | – |
| Cc1cccc(C)c1N(c1ccc(C(F)(F)F)cc1)c1cc(N(c2ccc(C(F)(F)F)cc2)c2c(C)cccc2C)c2ccc3c(N(c4ccc(C(F)(F)F)cc4)c4c(C)cccc4C)cc(N(c4ccc(C(F)(F)F)cc4)c4c(C)cccc4C)c4ccc1c2c43 [compound 12] | >4 g/100 g toluene | – | – | – | – | – | – | – |
| CCCCCCCCc1ccc(-c2c(N(c3cc(F)c(F)c(F)c3)c3cc(N(c4cc(F)c(F)c(F)c4)c4ccc5ccccc5c4-c4ccc(CCCCCCCC)cc4)c4ccc5c(N(c6cc(F)c(F)c(F)c6)c6ccc7ccccc7c6-c6ccc(CCCCCCCC)cc6)cc(N(c6cc(F)c(F)c(F)c6)c6ccc7ccccc7c6-c6ccc(CCCCCCCC)cc6)c6ccc3c4c65)ccc3ccccc23)cc1 [compound 17] | >4 g/100 g toluene | 475 nm | 494 nm | 5.8 × 10^4 L · mo 1^−1 | 476 nm | 497 nm | – | – |
